# Source: PubChem BioAssay AID1259407 (Chemical Carcinogenesis Research Information System (CCRIS), 2018)
# Calls of active or inactive are those of the source. No rule for the calls is given here.
# System: CCRIS mutagenicity, Ames/micronucleus/aberration tests
# Assay: CCRIS mutagenicity studies
# [1] = Test System: AMES SALMONELLA TYPHIMURIUM, Strain/Indicator: TA100, Metabolic Activation: NONE, Method: PREINCUBATION
# [2] = Test System: AMES SALMONELLA TYPHIMURIUM, Strain/Indicator: TA1537, Metabolic Activation: NONE, Method: STANDARD PLATE
structure (smiles),measurement,setting,value
O=C(O)c1ccc(Cl)cc1Cl,mutagenic call,"Test System: Ames Salmonella typhimurium, Strain/Indicator: TA98, Metabolic Activation: None, Method: Preincubation",inactive; negative. precipitation at highest dose.
same,mutagenic call,"Test System: Ames Salmonella typhimurium, Strain/Indicator: TA98, Metabolic Activation: Rat, Liver, S9, Phenobarbital and 5,6-benzoflavone, Method: Preincubation",inactive; negative. precipitation at highest dose.
same,mutagenic call,"Test System: Ames Salmonella typhimurium, Strain/Indicator: TA100, Metabolic Activation: None, Method: Preincubation",inactive; negative. precipitation at highest dose.
same,mutagenic call,"Test System: Ames Salmonella typhimurium, Strain/Indicator: TA100, Metabolic Activation: Rat, Liver, S9, Phenobarbital and 5,6-benzoflavone, Method: Preincubation",inactive; negative. precipitation at highest dose.
same,mutagenic call,"Test System: Ames Salmonella typhimurium, Strain/Indicator: TA1535, Metabolic Activation: None, Method: Preincubation",inactive; negative. precipitation at highest dose.
same,mutagenic call,"Test System: Ames Salmonella typhimurium, Strain/Indicator: TA1535, Metabolic Activation: Rat, Liver, S9, Phenobarbital and 5,6-benzoflavone, Method: Preincubation",inactive; negative. precipitation at highest dose.
same,mutagenic call,"Test System: Ames Salmonella typhimurium, Strain/Indicator: TA1537, Metabolic Activation: None, Method: Preincubation",inactive; negative. precipitation at highest dose.
same,mutagenic call,"Test System: Ames Salmonella typhimurium, Strain/Indicator: TA1537, Metabolic Activation: Rat, Liver, S9, Phenobarbital and 5,6-benzoflavone, Method: Preincubation",inactive; negative. precipitation at highest dose.
same,mutagenic call,"Test System: E. coli, Strain/Indicator: WP2uvrA/pKM101, Metabolic Activation: None, Method: Preincubation",inactive; negative. precipitation at highest dose.
same,mutagenic call,"Test System: E. coli, Strain/Indicator: WP2uvrA/pKM101, Metabolic Activation: Rat, Liver, S9, Phenobarbital and 5,6-benzoflavone, Method: Preincubation",inactive; negative. precipitation at highest dose.
CC(=O)C(N=Nc1ccc(-c2ccc(N=NC(C(C)=O)C(=O)Nc3ccccc3)c(Cl)c2)cc1Cl)C(=O)Nc1ccccc1 (stereo unspecified),mutagenic call,"Test System: AMES SALMONELLA TYPHIMURIUM, Strain/Indicator: TA98, Metabolic Activation: HAMSTER, LIVER, S-9, AROCLOR 1254 (10%), Method: PREINCUBATION",inactive; negative
same,mutagenic call,"Test System: AMES SALMONELLA TYPHIMURIUM, Strain/Indicator: TA98, Metabolic Activation: NONE, Method: PREINCUBATION",inactive; negative
same,mutagenic call,"Test System: AMES SALMONELLA TYPHIMURIUM, Strain/Indicator: TA98, Metabolic Activation: RAT, LIVER, S-9, AROCLOR 1254 (10%), Method: PREINCUBATION",inactive; negative
same,mutagenic call,"Test System: AMES SALMONELLA TYPHIMURIUM, Strain/Indicator: TA100, Metabolic Activation: HAMSTER, LIVER, S-9, AROCLOR 1254 (10%), Method: PREINCUBATION",inactive; negative
same,mutagenic call,[1],inactive; negative
same,mutagenic call,"Test System: AMES SALMONELLA TYPHIMURIUM, Strain/Indicator: TA100, Metabolic Activation: RAT, LIVER, S-9, AROCLOR 1254 (10%), Method: PREINCUBATION",inactive; negative
same,mutagenic call,"Test System: AMES SALMONELLA TYPHIMURIUM, Strain/Indicator: TA1535, Metabolic Activation: HAMSTER, LIVER, S-9, AROCLOR 1254 (10%), Method: PREINCUBATION",inactive; negative
same,mutagenic call,"Test System: AMES SALMONELLA TYPHIMURIUM, Strain/Indicator: TA1535, Metabolic Activation: NONE, Method: PREINCUBATION",inactive; negative
same,mutagenic call,"Test System: AMES SALMONELLA TYPHIMURIUM, Strain/Indicator: TA1535, Metabolic Activation: RAT, LIVER, S-9, AROCLOR 1254 (10%), Method: PREINCUBATION",inactive; negative
same,mutagenic call,"Test System: AMES SALMONELLA TYPHIMURIUM, Strain/Indicator: TA1537, Metabolic Activation: HAMSTER, LIVER, S-9, AROCLOR 1254 (10%), Method: PREINCUBATION",inactive; negative
same,mutagenic call,"Test System: AMES SALMONELLA TYPHIMURIUM, Strain/Indicator: TA1537, Metabolic Activation: NONE, Method: PREINCUBATION",inactive; negative
same,mutagenic call,"Test System: AMES SALMONELLA TYPHIMURIUM, Strain/Indicator: TA1537, Metabolic Activation: RAT, LIVER, S-9, AROCLOR 1254 (10%), Method: PREINCUBATION",inactive; negative
same,mutagenic call,"Test System: AMES SALMONELLA TYPHIMURIUM, Strain/Indicator: TA1538, Metabolic Activation: RAT, LIVER, S-9, AROCLOR 1254, Method: STANDARD PLATE",inactive; negative
C=C1CC/C=C(/C)CC[C@@H]2[C@@H]1CC2(C)C,mutagenic call,"Test System: AMES SALMONELLA TYPHIMURIUM, Strain/Indicator: TA98, Metabolic Activation: HAMSTER, LIVER, S-9, AROCLOR 1254, Method: STANDARD PLATE",inactive; negative
same,mutagenic call,"Test System: AMES SALMONELLA TYPHIMURIUM, Strain/Indicator: TA98, Metabolic Activation: NONE, Method: STANDARD PLATE",inactive; negative
same,mutagenic call,"Test System: AMES SALMONELLA TYPHIMURIUM, Strain/Indicator: TA98, Metabolic Activation: RAT, LIVER, S-9, AROCLOR 1254, Method: STANDARD PLATE",inactive; negative
same,mutagenic call,"Test System: AMES SALMONELLA TYPHIMURIUM, Strain/Indicator: TA100, Metabolic Activation: HAMSTER, LIVER, S-9, AROCLOR 1254, Method: STANDARD PLATE",inactive; negative
same,mutagenic call,"Test System: AMES SALMONELLA TYPHIMURIUM, Strain/Indicator: TA100, Metabolic Activation: NONE, Method: STANDARD PLATE",inactive; negative
same,mutagenic call,"Test System: AMES SALMONELLA TYPHIMURIUM, Strain/Indicator: TA100, Metabolic Activation: RAT, LIVER, S-9, AROCLOR 1254, Method: STANDARD PLATE",inactive; negative
same,mutagenic call,"Test System: AMES SALMONELLA TYPHIMURIUM, Strain/Indicator: TA102, Metabolic Activation: HAMSTER, LIVER, S-9, AROCLOR 1254, Method: STANDARD PLATE",inactive; negative
same,mutagenic call,"Test System: AMES SALMONELLA TYPHIMURIUM, Strain/Indicator: TA102, Metabolic Activation: NONE, Method: STANDARD PLATE",inactive; negative
same,mutagenic call,"Test System: AMES SALMONELLA TYPHIMURIUM, Strain/Indicator: TA102, Metabolic Activation: RAT, LIVER, S-9, AROCLOR 1254, Method: STANDARD PLATE",inactive; negative
same,mutagenic call,"Test System: AMES SALMONELLA TYPHIMURIUM, Strain/Indicator: TA1535, Metabolic Activation: HAMSTER, LIVER, S-9, AROCLOR 1254, Method: STANDARD PLATE",inactive; negative
same,mutagenic call,"Test System: AMES SALMONELLA TYPHIMURIUM, Strain/Indicator: TA1535, Metabolic Activation: NONE, Method: STANDARD PLATE",inactive; negative
same,mutagenic call,"Test System: AMES SALMONELLA TYPHIMURIUM, Strain/Indicator: TA1535, Metabolic Activation: RAT, LIVER, S-9, AROCLOR 1254, Method: STANDARD PLATE",inactive; negative
same,mutagenic call,"Test System: AMES SALMONELLA TYPHIMURIUM, Strain/Indicator: TA1537, Metabolic Activation: HAMSTER, LIVER, S-9, AROCLOR 1254, Method: STANDARD PLATE",inactive; negative
same,mutagenic call,[2],inactive; negative
same,mutagenic call,"Test System: AMES SALMONELLA TYPHIMURIUM, Strain/Indicator: TA1537, Metabolic Activation: RAT LIVER, S-9, AROCLOR 1254, Method: STANDARD PLATE",inactive; negative
same,mutagenic call,"Test System: MOUSE LYMPHOMA, Strain/Indicator: L5178Y (TK+/TK-), Metabolic Activation: NONE, Method: SUSPENSION/PLATE",inactive; positive; reevaluation of results: negative
same,mutagenic call,"Test System: Mouse lymphoma, Strain/Indicator: L5178Y (tk+/tk-), Metabolic Activation: Rat, Liver, S-9, Aroclor 1254, Method: Suspension/plate",equivocal
O[C@@H]1[C@H]2O[C@H]2c2c(cc3ccc4cccc5c6ccccc6c2c3c45)[C@H]1O,mutagenic call,"Test System: AMES SALMONELLA TYPHIMURIUM, Strain/Indicator: TA97, Metabolic Activation: NONE, Method: PREINCUBATION (EXPOSURE IN MEDIUM WITH KCL)",active; positive
same,mutagenic call,"Test System: AMES SALMONELLA TYPHIMURIUM, Strain/Indicator: TA97, Metabolic Activation: NONE, Method: PREINCUBATION (EXPOSURE IN MEDIUM WITHOUT KCL)",active; positive
same,mutagenic call,"Test System: AMES SALMONELLA TYPHIMURIUM, Strain/Indicator: TA98, Metabolic Activation: NONE, Method: PREINCUBATION (EXPOSURE IN MEDIUM WITH KCL)",active; positive
same,mutagenic call,"Test System: AMES SALMONELLA TYPHIMURIUM, Strain/Indicator: TA98, Metabolic Activation: NONE, Method: PREINCUBATION (EXPOSURE IN MEDIUM WITHOUT KCL)",active; positive
same,mutagenic call,"Test System: AMES SALMONELLA TYPHIMURIUM, Strain/Indicator: TA100, Metabolic Activation: NONE, Method: PREINCUBATION (EXPOSURE IN MEDIUM WITH KCL)",active; positive
same,mutagenic call,"Test System: AMES SALMONELLA TYPHIMURIUM, Strain/Indicator: TA100, Metabolic Activation: NONE, Method: PREINCUBATION (EXPOSURE IN MEDIUM WITHOUT KCL)",active; positive
same,mutagenic call,"Test System: AMES SALMONELLA TYPHIMURIUM, Strain/Indicator: TA104, Metabolic Activation: NONE, Method: PREINCUBATION (EXPOSURE IN MEDIUM WITH KCL)",active; positive
same,mutagenic call,"Test System: AMES SALMONELLA TYPHIMURIUM, Strain/Indicator: TA104, Metabolic Activation: NONE, Method: PREINCUBATION (EXPOSURE IN MEDIUM WITHOUT KCL)",active; positive
same,mutagenic call,"Test System: CHINESE HAMSTER V-79, Strain/Indicator: V-79/6-THIOGUANINE, Metabolic Activation: NONE",active; positive
ClCC1(CCl)[C@H]2CC(Cl)(Cl)[C@]1(CCl)[C@@H](Cl)[C@@H]2Cl,mutagenic call,[1],inactive; negative
CN(C)CCNC(=O)c1cc2ccccc2c2cccnc12,mutagenic call,[2],active; positive
